Source: patent US12590062B2, “PD-1/PD-L1 inhibitors” (Gilead Sciences, Inc., priority 2017, dated 2026)

Columns and labels:
PD-1/PD-L1 = PD-1/PD-L1 (Homo sapiens, UniProt Q9NZQ7); test: PD-1/PD-L1 biochemical protein-protein interaction assay (ALPHA); assay type: binding; settings: 0.3 nM His tagged PD-L1, 2.5 nM biotinylated Fc-PD-1, 60 minutes at 25° C., read-out: IC50 PD-L1-PD-1 Alpha IC50-mono PD-L1-fcP-D1
Summary of the method: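 Compound blockade of the PD-1/PD-L1 extracellular-domain interaction measured as reduced ALPHA signal after 60 min at 25 °C, pH 7.4 Hepes buffer with EDTA, Tween 20 and BSA. Final proteins: His-tagged PD-L1 0.3 nM, biotinylated Fc-PD-1 2.5 nM; four-parameter curve fit gives IC50.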

PD-L1 = molecular target: T1, PD-L1 (Homo sapiens, UniProt Q9NZQ7); test: PD-L1/PD-L1 dimerization biochemical protein-protein interaction assay (ALPHA); assay type: binding; settings: compound-induced PD-L1 dimerization, head prints '1 nM' (0.5 nM His-tagged PD-L1 and 0.5 nM FLAG-tagged PD-L1), read-out: AC50 PDL1 Dimer Alpha 1 nM
T1 construct: determine if they can specifically dimerize the extracellular domains of PD-L1
Summary of the method: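 After 2 h at 25 °C with compound, His- and FLAG-tagged PD-L1 ECDs (each 0.5 nM final; 25 mM Hepes pH 7.4, 150 mM NaCl) were detected by sequential anti-His acceptor and anti-FLAG donor bead incubations. Dose-response curves fitted to four-parameter equation for AC50.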

PD-1/PD-L1 interaction = molecular target: T2, PD-1/PD-L1 interaction (Homo sapiens, UniProt Q9NZQ7); test: PD-1/PD-L1 NFAT reporter co-culture assay; assay type: cell-based; settings: Jurkat PD-1 NFAT-luciferase cells co-cultured with aAPC-PD-L1 CHO cells, 6 hrs at 37° C.; read-out: EC50 NFAT Luciferase
T2 construct: expressed in transfected cells; host or cells: CHO cells (aAPC-PD-L1) co-cultured with Jurkat cells overexpressing PD-1 and an NFAT-luciferase reporter
Summary of the method: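 Luminescence (ONE-Glo) after 6 h, 37 °C co-culture reports NFAT-luciferase in PD-1 Jurkat cells, which PD-1/PD-L1 engagement suppresses. Partner cells: CHO expressing anti-CD3 and PD-L1. EC50 from four-parameter dose-response fit.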

T2 sequence (Q9NZQ7 19-290): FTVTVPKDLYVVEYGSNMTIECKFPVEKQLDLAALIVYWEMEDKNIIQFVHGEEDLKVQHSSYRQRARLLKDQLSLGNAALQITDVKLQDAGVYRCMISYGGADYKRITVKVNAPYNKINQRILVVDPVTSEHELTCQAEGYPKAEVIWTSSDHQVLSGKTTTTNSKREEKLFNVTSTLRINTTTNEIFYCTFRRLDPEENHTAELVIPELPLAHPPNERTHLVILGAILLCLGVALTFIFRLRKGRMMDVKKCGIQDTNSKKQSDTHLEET
Sequence of PD-1/PD-L1 (Q9NZQ7 19-238 limits assumed): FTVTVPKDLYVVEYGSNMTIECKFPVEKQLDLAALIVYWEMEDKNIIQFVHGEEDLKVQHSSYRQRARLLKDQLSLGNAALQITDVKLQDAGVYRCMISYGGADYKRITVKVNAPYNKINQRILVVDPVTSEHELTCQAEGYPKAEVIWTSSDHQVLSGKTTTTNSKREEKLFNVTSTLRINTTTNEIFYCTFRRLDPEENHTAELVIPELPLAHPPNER
T1 sequence (Q9NZQ7 19-238 limits assumed): as above
T1 sequence (Q9NZQ7 19-238 limits assumed): as above

Structure (SMILES): COc1nc(O[C@H]2CCc3c(-c4cccc(-c5cnc(CN6CC(C)(CO)C6)c(OC)n5)c4Cl)cccc32)c(Cl)cc1CN1CC[C@H](C(=O)O)C1 [Example 707]
- IC50 (PD-1/PD-L1): 0.064 nM
- AC50 (PD-L1): 39.3 nM
- EC50 (PD-1/PD-L1 interaction): 31 nM

Structure (SMILES): COc1nc(OCc2cccc(-c3cccc(COc4nc(OC)c(CNC[C@@H](O)CC(=O)O)cc4Br)c3C#N)c2Cl)c(Br)cc1CNC[C@@H](O)CC(=O)O [Example 562]
- IC50 (PD-1/PD-L1): 0.102 nM
- AC50 (PD-L1): 126 nM
- EC50 (PD-1/PD-L1 interaction): 162 nM

Structure (SMILES): COc1cc(-c2cccc(-c3cccc4c3CC[C@@H]4Oc3nc(OC)c(CNC[C@@H]4CCC(=O)N4)cc3Br)c2Cl)ccc1CNC[C@@H]1CCC(=O)N1 [Example 792]
- IC50 (PD-1/PD-L1): 0.534 nM
- AC50 (PD-L1): 22.7 nM
- EC50 (PD-1/PD-L1 interaction): 40 nM

Structure (SMILES): Cc1c(COc2cc(OCc3cncc(C#N)c3)c(CNC[C@@H](O)CC(=O)O)cc2Cl)cccc1-c1cccc(-c2nc3ccc(CNC[C@@H](O)CC(=O)O)cn3n2)c1C [Example 595]
- IC50 (PD-1/PD-L1): 0.064 nM
- AC50 (PD-L1): 77 nM
- EC50 (PD-1/PD-L1 interaction): 65 nM

Structure (SMILES): N#Cc1cncc(COc2nc(O[C@H]3CCc4c(-c5cccc(-c6ccc(OCCNCCO)cc6)c5Cl)cccc43)c(Cl)cc2CNC[C@@H](O)CC(=O)O)c1 [Example 291, (S)-4-(((5-chloro-6-(((S)-4-(2-chloro-4′-(2-((2-hydroxyethyl)amino)ethoxy)-[1,1′-biphenyl]-3-yl)-2,3-dihydro-1H-inden-1-yl)oxy)-2-((5-cyanopyridin-3-yl)methoxy)pyridin-3-yl)methyl)amino)-3-hydroxybutanoic acid]
- IC50 (PD-1/PD-L1): 0.175 nM
- AC50 (PD-L1): 27.5 nM
- EC50 (PD-1/PD-L1 interaction): 46 nM

Structure (SMILES): C[C@@](CO)(NCc1ccc(O[C@H]2CCc3c(-c4cccc5c4CC[C@@H]5Oc4nc(OCc5cncc(C#N)c5)c(CN[C@@](C)(CO)C(=O)O)cc4Cl)cccc32)cc1)C(=O)O [Example 685]
- IC50 (PD-1/PD-L1): 0.552 nM
- AC50 (PD-L1): 1820 nM
- EC50 (PD-1/PD-L1 interaction): 625 nM

Structure (SMILES): C[C@@](CO)(NCc1cc(Cl)c(O[C@H]2CCc3c(-c4cccc5c4CC[C@@H]5Oc4nc(OCc5cncc(S(C)(=O)=O)c5)c(CN5CC[C@@H](O)C5)cc4Cl)cccc32)nc1OCc1cncc(S(C)(=O)=O)c1)C(=O)O [Example 688]
- IC50 (PD-1/PD-L1): 0.412 nM
- AC50 (PD-L1): 141 nM
- EC50 (PD-1/PD-L1 interaction): ≥ 50000 nM

Structure (SMILES): Cc1c(COc2cc(OCc3cncc(C#N)c3)c(CN3C[C@@H](O)C[C@H]3C(=O)O)cc2Cl)cccc1-c1cccc(-c2ccc3c(c2)CC[C@H]3N(C)C)c1C [Example 377, (2S,4S)-1-(5-chloro-2-((5-cyanopyridin-3-yl)methoxy)-4-((3′-((R)-1-(dimethylamino)-2,3-dihydro-1H-inden-5-yl)-2,2′-dimethyl-[1,1′-biphenyl]-3-yl)methoxy)benzyl)-4-hydroxypyrrolidine-2-carboxylic acid]
- IC50 (PD-1/PD-L1): 0.178 nM
- AC50 (PD-L1): 231 nM
- EC50 (PD-1/PD-L1 interaction): 262 nM

Structure (SMILES): Cc1c(COc2cc(OCc3cncc(C#N)c3)c(CN[C@@H]3CCC[C@@H]3O)cc2Cl)cccc1-c1cccc(-c2ccc3c(c2)CCC3N2CC[C@H](CC(=O)O)C2)c1C (stereo partly drawn) [Example 584]
- IC50 (PD-1/PD-L1): 0.124 nM
- AC50 (PD-L1): 38.6 nM
- EC50 (PD-1/PD-L1 interaction): 149 nM

Structure (SMILES): COc1nc(O[C@H]2CCc3c(-c4cccc(-c5ccc6c(c5)C[C@@H](N)C6)c4Cl)cccc32)c(Br)cc1CN[C@@](C)(CO)C(=O)O [Example 784]
- IC50 (PD-1/PD-L1): 0.064 nM
- AC50 (PD-L1): 28.9 nM
- EC50 (PD-1/PD-L1 interaction): 182 nM

Structure (SMILES): COc1nc(-c2cccc(-c3cccc(-c4ccn5cc(CN6CC7(CCC(=O)N7)C6)nc5c4)c3Cl)c2Cl)ccc1CN1CC2(CCC(=O)N2)C1 [Example 618]
- IC50 (PD-1/PD-L1): 0.224 nM
- AC50 (PD-L1): 389 nM
- EC50 (PD-1/PD-L1 interaction): ≥ 50000 nM

Structure (SMILES): Cc1c(COc2cc(OCc3cc(S(C)(=O)=O)cc(S(C)(=O)=O)c3)c(CN[C@@](C)(CO)C(=O)O)cc2Cl)cccc1-c1cccc(-c2ccc(CCCN3CC[C@@H](O)C3)cc2)c1C [Example 467]
- IC50 (PD-1/PD-L1): 0.161 nM
- AC50 (PD-L1): 111 nM
- EC50 (PD-1/PD-L1 interaction): 197 nM

Structure (SMILES): CC(=O)N1CC2(CN(Cc3cn(C)c4nc(-c5cccc(-c6cccc(-c7cnc8c(CN9CC%10(C9)CN(C(C)=O)C%10)cn(C)c8n7)c6Cl)c5Cl)cnc34)C2)C1 [Example 587]
- IC50 (PD-1/PD-L1): 0.145 nM
- AC50 (PD-L1): 324 nM
- EC50 (PD-1/PD-L1 interaction): 45 nM

Structure (SMILES): COc1nc(-c2cccc(-c3cccc4c3CC[C@@H]4Oc3nc(OC)c(CN[C@@](C)(CO)C(=O)O)cc3Cl)c2Cl)ccc1CNC[C@@H]1CCC(=O)N1 [Example 727]
- IC50 (PD-1/PD-L1): 0.064 nM
- AC50 (PD-L1): 15.8 nM
- EC50 (PD-1/PD-L1 interaction): 27 nM

Structure (SMILES): Cc1c(COc2cc(OCc3cncc(C#N)c3)c(CNC[C@@H](O)CC(=O)O)cc2Cl)cccc1-c1cccc(-c2ccc3c(c2)CC(NCC2CCC(=O)N2)C3)c1C (stereo partly drawn) [Example 439]
- IC50 (PD-1/PD-L1): 0.376 nM
- AC50 (PD-L1): 154 nM
- EC50 (PD-1/PD-L1 interaction): 270 nM

Structure (SMILES): COc1nc(O[C@H]2CCc3c(-c4cccc(-c5cnc(CNC[C@@H]6CCC(=O)N6)c(OC)n5)c4Cl)cccc32)c(Cl)cc1CNC[C@@H]1CCC(=O)N1 [Example 652]
- IC50 (PD-1/PD-L1): 0.158 nM
- AC50 (PD-L1): 140 nM
- EC50 (PD-1/PD-L1 interaction): 59 nM

Structure (SMILES): CN1CCCC1c1ccc(-c2cccc(-c3cccc4c3CC[C@@H]4Oc3nc(OCc4cncc(C#N)c4)c(CN[C@@](C)(CO)C(=O)O)cc3Cl)c2Cl)cc1 (stereo partly drawn) [Example 290, (2S)-2-(((5-chloro-6-(((1S)-4-(2-chloro-4′-(1-methylpyrrolidin-2-yl)-[1,1′-biphenyl]-3-yl)-2,3-dihydro-1H-inden-1-yl)oxy)-2-((5-cyanopyridin-3-yl)methoxy)pyridin-3-yl)methyl)amino)-3-hydroxy-2-methylpropanoic acid]
- IC50 (PD-1/PD-L1): 0.068 nM
- AC50 (PD-L1): 25.1 nM
- EC50 (PD-1/PD-L1 interaction): 311 nM

Structure (SMILES): Cc1c(COc2cc(OCc3cncc(C#N)c3)c(CN[C@@](C)(CO)C(=O)O)cc2Cl)cccc1-c1cccc(-c2ccc(OCCN3CCC4(CCCNC4=O)CC3)cc2)c1C [Example 516]
- IC50 (PD-1/PD-L1): 0.065 nM
- AC50 (PD-L1): 104 nM
- EC50 (PD-1/PD-L1 interaction): 92 nM

Structure (SMILES): Cc1c(COc2cc(OCc3cncc(C#N)c3)c(CNC[C@@H](O)CC(=O)O)cc2Cl)cccc1-c1cccc(-c2nc3ccc(CNC[C@@H](O)CC(=O)O)cc3o2)c1C [Example 592]
- IC50 (PD-1/PD-L1): 0.095 nM
- AC50 (PD-L1): 107 nM
- EC50 (PD-1/PD-L1 interaction): 172 nM

Structure (SMILES): COc1nc(-c2cccc(-c3cccc4c3CC[C@@H]4Oc3nc(OC)c(CN4CCC(C)(C(=O)O)C4)cc3Cl)c2Cl)ccc1CNC[C@@H]1CCC(=O)N1 (stereo partly drawn) [Example 763]
- IC50 (PD-1/PD-L1): 0.064 nM
- AC50 (PD-L1): 11.3 nM
- EC50 (PD-1/PD-L1 interaction): 10 nM

Structure (SMILES): Cc1c(COc2cc(OCc3cncc(C#N)c3)c(CN[C@@](C)(CO)C(=O)O)cc2Cl)cccc1-c1cccc(-c2ncc(CN3CC[C@@H](O)C3)cn2)c1C [Example 455]
- IC50 (PD-1/PD-L1): 0.172 nM
- AC50 (PD-L1): 686 nM
- EC50 (PD-1/PD-L1 interaction): 1540 nM

Structure (SMILES): COc1nc(O[C@H]2CCc3c(-c4cccc(-c5cnc(CNC[C@@H]6CCC(=O)N6)c(OC)n5)c4Cl)cccc32)c(Cl)cc1CN[C@@](C)(CO)C(=O)O [Example 649]
- IC50 (PD-1/PD-L1): 0.064 nM
- AC50 (PD-L1): 38.8 nM
- EC50 (PD-1/PD-L1 interaction): 29 nM

Structure (SMILES): COc1nc(-c2cccc(-c3cccc(COc4nc(OC)c(CNC[C@H]5CCC(=O)N5)cc4Cl)c3Cl)c2Cl)ccc1CN1CC2(CCC(=O)N2)C1 [Example 432]
- IC50 (PD-1/PD-L1): 1.52 nM
- AC50 (PD-L1): 539 nM
- EC50 (PD-1/PD-L1 interaction): 289 nM

Structure (SMILES): Cc1c(COc2cc(OCc3cncc(C#N)c3)c(CN[C@@](C)(CO)C(=O)O)cc2Cl)cccc1-c1cccc(-c2ccc(CC3CCCN3)cc2)c1C (stereo partly drawn) [Example 292, (2S)-2-((5-chloro-2-((5-cyanopyridin-3-yl)methoxy)-4-((2,2′-dimethyl-4″-(pyrrolidin-2-ylmethyl)-[1,1′:3′,1″-terphenyl]-3-yl)methoxy)benzyl)amino)-3-hydroxy-2-methylpropanoic acid]
- IC50 (PD-1/PD-L1): 0.509 nM
- AC50 (PD-L1): 230 nM
- EC50 (PD-1/PD-L1 interaction): 615 nM
